Experimental data as given in US9451764B2, “Composition comprising insecticide-wax particles” (priority 2010, dated 2016).

Test system: Blattella germanica
Experiment: Activity of different insecticides on timber, cement and tile
Assay type: in vivo
Source text: Example e) illustrates that other active ingredients as well can be used successfully in the context of this invention (as a diluted suspension concentration, i.e. as a spraying liquor of the invention). In addition to deltamethrin, both bendiocarb and beta-cyfluthrin and cyfluthrin can be encapsulated.

[1] = 4 mg/m^2 (reduced concentration), Cement
[2] = 4 mg/m^2 (reduced concentration), Tile
[3] = 4 mg/m^2 (reduced concentration), Timber
[4] = 12.5 mg/m^2 (standard concentration), Cement, 30-minute exposure
[5] = 12.5 mg/m^2 (standard concentration), Tile, 30-minute exposure
[6] = 12.5 mg/m^2 (standard concentration), Timber, 30-minute exposure
[7] = 8 mg/m^2 (reduced concentration), Cement
[8] = 8 mg/m^2 (reduced concentration), Tile
[9] = 8 mg/m^2 (reduced concentration), Timber
[10] = 25 mg/m^2 (standard concentration), Cement, 30-minute exposure
[11] = 25 mg/m^2 (standard concentration), Tile, 30-minute exposure
[12] = 25 mg/m^2 (standard concentration), Timber, 30-minute exposure
[13] = 50 mg/m^2 (reduced concentration), Cement
[14] = 50 mg/m^2 (reduced concentration), Tile
[15] = 100 mg/m^2 (standard concentration), Cement, 30-minute exposure
[16] = 100 mg/m^2 (standard concentration), Tile, 30-minute exposure

With `CC1(C)C(C=C(Cl)Cl)C1C(=O)OC(C#N)c1ccc(F)c(Oc2ccccc2)c1` (stereo not drawn) [Beta-cyfluthrin, beta-cyfluthrin] the “Knockdown after 1 h” value [1] was 100%, the “Mortality after 24 h” value [1] was 100% and the “Knockdown after 1 h” value [2] was 100%. For the same compound, the “Mortality after 24 h” value [2] was 100%, the “Knockdown after 1 h” value [3] was 100% and the “Mortality after 24 h” value [3] was 100%. For the same compound, the “Knockdown after 1 h” value [4] was 100%, the “Mortality after 24 h” value [4] was 100% and the “Knockdown after 1 h” value [5] was 100%. For the same compound, the “Mortality after 24 h” value [5] was 100%, the “Knockdown after 1 h” value [6] was 100% and the “Mortality after 24 h” value [6] was 100%.
In the case of `CC1(C)C(C=C(Cl)Cl)C1C(=O)OC(C#N)c1ccc(F)c(Oc2ccccc2)c1` (stereo not drawn) [cyfluthrin], the “Knockdown after 1 h” value [7] is reported as 100%, the “Mortality after 24 h” value [7] is reported as 100% and the “Knockdown after 1 h” value [8] is reported as 100%. For the same compound, the “Mortality after 24 h” value [8] was 100%, the “Knockdown after 1 h” value [9] was 100% and the “Mortality after 24 h” value [9] was 100%. The “Knockdown after 1 h” value [10] was 100%, the “Mortality after 24 h” value [10] was 100% and the “Knockdown after 1 h” value [11] was 100%. For the same compound, the “Mortality after 24 h” value [11] was 100%, the “Knockdown after 1 h” value [12] was 100% and the “Mortality after 24 h” value [12] was 100%.
`CC1(C)[C@H](C(=O)O[C@H](C#N)c2cccc(Oc3ccccc3)c2)[C@@H]1C=C(Br)Br` [Deltamethrin, deltamethrin] was tested, and the “Knockdown after 1 h” value [1] was 100%, the “Mortality after 24 h” value [1] was 100% and the “Knockdown after 1 h” value [2] was 100%. For the same compound, the “Mortality after 24 h” value [2] was 100%, the “Knockdown after 1 h” value [3] was 100% and the “Knockdown after 1 h” value [4] was 100%. For the same compound, the “Mortality after 24 h” value [4] was 100%, the “Knockdown after 1 h” value [5] was 100% and the “Mortality after 24 h” value [5] was 100%. For the same compound, the “Knockdown after 1 h” value [6] was 100%, the mortality at 4 mg/m2 (Blattella germanica, 24 h, 4 mg/m^2 (reduced concentration), Timber, read-out: Mortality after 24 h) was 100% and the mortality at 12.5 mg/m2 (Blattella germanica, 12.5 mg/m^2 (standard concentration), Timber, 30-minute exposure, read-out: Mortality after 24 h) was 100%.
`CNC(=O)Oc1cccc2c1OC(C)(C)O2` [Bendiocarb, bendiocarb] was tested, and the “Knockdown after 1 h” value [13] was 90%, the “Mortality after 24 h” value [13] was 100% and the “Knockdown after 1 h” value [14] was 100%. For the same compound, the “Mortality after 24 h” value [14] was 100%, the “Knockdown after 1 h” value (50 mg/m^2 (reduced concentration), Timber) was 50% and the “Knockdown after 1 h” value [15] was 100%. For the same compound, the “Mortality after 24 h” value [15] was 100%, the “Knockdown after 1 h” value [16] was 100% and the “Mortality after 24 h” value [16] was 100%. For the same compound, the “Knockdown after 1 h” value (100 mg/m^2 (standard concentration), Timber, 30-minute exposure) was 60%, the mortality at 50 mg/m2 (Blattella germanica, 24 h, read-out: Mortality after 24 h) was 100% and the mortality at 100 mg/m2 (Blattella germanica, read-out: Mortality after 24 h) was 100%.
